Measured values taken from patent US11530210B2, “Substituted heteroaromatic pyrazolo-pyridines and their use as GLUN2B receptor modulators” (JANSSEN PHARMACEUTICA NV, priority 2019, dated 2022).

Molecular target: T1, human GluN1/GluN2B NMDA receptors (Homo sapiens, UniProt Q13224)
T1 construct: expressed in transfected cells
Test: Calcium flux (FLIPR) assay on cloned human NR1/GluN2B ion channels expressed in mammalian cells (standard and HTS variants)
Assay type: cell-based
Details: cells expressing human GluN1/GluN2B, glutamate and glycine co-agonists
Summary of the method: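 Calcium influx read by FLIPR after co-agonist addition (glycine 10 μM, glutamate near EC40) following 5 min compound preincubation, with signal normalized to control wells.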

T1 sequence (Q13224 27-1484, other chains not shown): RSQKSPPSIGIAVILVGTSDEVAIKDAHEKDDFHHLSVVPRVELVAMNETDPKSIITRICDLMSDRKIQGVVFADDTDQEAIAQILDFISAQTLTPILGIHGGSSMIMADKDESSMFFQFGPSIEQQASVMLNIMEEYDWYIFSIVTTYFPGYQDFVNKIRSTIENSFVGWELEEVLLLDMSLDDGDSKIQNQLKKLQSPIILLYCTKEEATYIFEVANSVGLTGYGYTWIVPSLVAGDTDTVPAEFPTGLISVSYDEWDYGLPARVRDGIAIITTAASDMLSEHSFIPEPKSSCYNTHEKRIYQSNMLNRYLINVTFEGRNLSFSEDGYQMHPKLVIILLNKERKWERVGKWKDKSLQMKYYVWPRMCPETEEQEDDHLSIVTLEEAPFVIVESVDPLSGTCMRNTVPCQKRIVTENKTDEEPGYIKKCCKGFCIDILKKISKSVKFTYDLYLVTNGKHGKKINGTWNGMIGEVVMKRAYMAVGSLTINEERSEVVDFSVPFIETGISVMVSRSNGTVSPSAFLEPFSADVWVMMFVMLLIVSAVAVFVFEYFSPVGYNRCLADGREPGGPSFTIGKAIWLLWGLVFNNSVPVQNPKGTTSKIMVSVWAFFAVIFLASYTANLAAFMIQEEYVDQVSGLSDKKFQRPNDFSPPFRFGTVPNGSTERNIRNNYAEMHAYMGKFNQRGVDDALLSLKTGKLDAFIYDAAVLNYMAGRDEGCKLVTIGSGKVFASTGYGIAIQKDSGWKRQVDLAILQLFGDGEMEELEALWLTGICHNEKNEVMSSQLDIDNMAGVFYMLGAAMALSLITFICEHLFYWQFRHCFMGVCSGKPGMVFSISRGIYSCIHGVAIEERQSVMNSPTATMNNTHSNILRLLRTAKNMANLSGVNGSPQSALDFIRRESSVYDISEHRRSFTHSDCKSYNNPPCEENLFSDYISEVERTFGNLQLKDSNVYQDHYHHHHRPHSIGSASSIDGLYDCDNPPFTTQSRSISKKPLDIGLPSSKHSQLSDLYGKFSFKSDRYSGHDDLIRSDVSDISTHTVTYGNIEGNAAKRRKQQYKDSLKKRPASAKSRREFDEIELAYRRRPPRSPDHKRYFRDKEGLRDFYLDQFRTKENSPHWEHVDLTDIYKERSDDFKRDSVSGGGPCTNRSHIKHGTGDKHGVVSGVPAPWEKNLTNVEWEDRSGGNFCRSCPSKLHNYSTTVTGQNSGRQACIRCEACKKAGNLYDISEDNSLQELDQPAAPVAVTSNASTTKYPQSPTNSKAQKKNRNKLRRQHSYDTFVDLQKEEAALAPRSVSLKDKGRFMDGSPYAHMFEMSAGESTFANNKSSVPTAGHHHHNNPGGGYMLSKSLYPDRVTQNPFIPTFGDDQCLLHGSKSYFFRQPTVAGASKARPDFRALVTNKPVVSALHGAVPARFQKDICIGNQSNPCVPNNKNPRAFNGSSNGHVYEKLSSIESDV

SMILES	IC50 [nM]
Cc1cc(-c2cnc3cnn(Cc4nnc(C(F)(F)F)o4)c3c2)ccc1F [Example 91, 2-[[6-(4-Fluoro-3-methyl-phenyl)pyrazolo[4,3-b]pyridin-1-yl]methyl]-5-(trifluoromethyl)-1,3,4-oxadiazole]	145
Cc1nnc(Cn2nc(F)c3ncc(-c4ccc(F)c(Cl)c4)cc32)o1 [Example 93, 2-[[6-(3-Chloro-4-fluoro-phenyl)-3-fluoro-pyrazolo[4,3-b]pyridin-1-yl]methyl]-5-methyl-1,3,4-oxadiazole]	87
Fc1ccc(-c2cnc3cnn(Cc4nnc(-c5ccccc5)o4)c3c2)cc1C(F)F [Example 103, 2-[[6-[3-(Difluoromethyl)-4-fluoro-phenyl]pyrazolo[4,3-b]pyridin-1-yl]methyl]-5-phenyl-1,3,4-oxadiazole]	> 2990
Cc1nnc(Cn2nc(F)c3ncc(-c4ccc(F)c(C(C)(F)F)c4)cc32)o1 [Example 105, 2-[[6-[3-(1,1-Difluoroethyl)-4-fluoro-phenyl]-3-fluoro-pyrazolo[4,3-b]pyridin-1-yl]methyl]-5-methyl-1,3,4-oxadiazole]	367
Cc1noc(Cn2ncc3ncc(-c4cc(F)cc(C(F)(F)F)c4)cc32)n1 [Example 108, 5-[[6-[3-Fluoro-5-(trifluoromethyl)phenyl]pyrazolo[4,3-b]pyridin-1-yl]methyl]-3-methyl-1,2,4-oxadiazole]	815
Cc1noc(Cn2ncc3ncc(-c4cc(C(F)(F)F)ccc4F)cc32)n1 [Example 109, 5-[[6-[2-Fluoro-5-(trifluoromethyl)phenyl]pyrazolo[4,3-b]pyridin-1-yl]methyl]-3-methyl-1,2,4-oxadiazole]	3260
Cc1noc(Cn2ncc3ncc(-c4ccc(F)c(C(F)(F)F)c4)cc32)n1 [Example 110, 5-[[6-[4-Fluoro-3-(trifluoromethyl)phenyl]pyrazolo[4,3-b]pyridin-1-yl]methyl]-3-methyl-1,2,4-oxadiazole]	400
Cc1noc(Cn2ncc3ncc(-c4cccc(C(F)(F)F)c4F)cc32)n1 [Example 111, 5-[[6-[2-Fluoro-3-(trifluoromethyl)phenyl]pyrazolo[4,3-b]pyridin-1-yl]methyl]-3-methyl-1,2,4-oxadiazole]	183
Cc1noc(Cn2ncc3ncc(-c4ccc(F)c(OC(F)F)c4)cc32)n1 [Example 112, 5-[[6-[3-(Difluoromethoxy)-4-fluoro-phenyl]pyrazolo[4,3-b]pyridin-1-yl]methyl]-3-methyl-1,2,4-oxadiazole]	289
Cc1nc(Cn2ncc3ncc(-c4ccc(F)c(OC(F)F)c4)cc32)no1 [Example 114, 3-[[6-[3-(Difluoromethoxy)-4-fluoro-phenyl]pyrazolo[4,3-b]pyridin-1-yl]methyl]-5-methyl-1,2,4-oxadiazole]	279
Fc1ccc(-c2cnc3cnn(Cc4nnc(C(F)(F)F)o4)c3c2)cc1OC(F)F [Example 115, 2-[[6-[3-(Difluoromethoxy)-4-fluoro-phenyl]pyrazolo[4,3-b]pyridin-1-yl]methyl]-5-(trifluoromethyl)-1,3,4-oxadiazole]	414
Cc1nnc(Cn2nc(F)c3ncc(-c4ccc(Cl)c(OC(F)F)c4)cc32)o1 [Example 117, 2-[[6-[4-Chloro-3-(difluoromethoxy)phenyl]-3-fluoro-pyrazolo[4,3-b]pyridin-1-yl]methyl]-5-methyl-1,3,4-oxadiazole]	655
Cc1nnc(Cn2ncc3ncc(-c4ccc(F)c(C)c4F)cc32)o1 [Example 118, 2-[[6-(2,4-Difluoro-3-methyl-phenyl)pyrazolo[4,3-b]pyridin-1-yl]methyl]-5-methyl-1,3,4-oxadiazole]	35

Next, values leading:

IC50 [nM]	SMILES
90	Cc1nnc(Cn2ncc3ncc(-c4ccc(F)c(Cl)c4)cc32)o1 [Example 92, 2-[[6-(3-Chloro-4-fluoro-phenyl)pyrazolo[4,3-b]pyridin-1-yl]methyl]-5-methyl-1,3,4-oxadiazole]
58	Fc1ccc(-c2cnc3cnn(Cc4nnco4)c3c2)cc1C(F)F [Example 94, 2-[[6-[3-(Difluoromethyl)-4-fluoro-phenyl]pyrazolo[4,3-b]pyridin-1-yl]methyl]-1,3,4-oxadiazole]
40	Cc1noc(Cn2ncc3ncc(-c4ccc(F)c(C(F)F)c4)cc32)n1 [Example 95, 5-[[6-[3-(Difluoromethyl)-4-fluoro-phenyl]pyrazolo[4,3-b]pyridin-1-yl]methyl]-3-methyl-1,2,4-oxadiazole]
34	Cc1nonc1Cn1ncc2ncc(-c3ccc(F)c(C(F)F)c3)cc21 [Example 98, 3-[[6-[3-(Difluoromethyl)-4-fluoro-phenyl]pyrazolo[4,3-b]pyridin-1-yl]methyl]-4-methyl-1,2,5-oxadiazole]
70	Fc1ccc(-c2cnc3cnn(Cc4nnc(C5CC5)o4)c3c2)cc1C(F)F [Example 99, 2-Cyclopropyl-5-[[6-[3-(difluoromethyl)-4-fluoro-phenyl]pyrazolo[4,3-b]pyridin-1-yl]methyl]-1,3,4-oxadiazole]
550	CC(C)c1nnc(Cn2ncc3ncc(-c4ccc(F)c(C(F)F)c4)cc32)o1 [Example 100, 2-[[6-[3-(Difluoromethyl)-4-fluoro-phenyl]pyrazolo[4,3-b]pyridin-1-yl]methyl]-5-isopropyl-1,3,4-oxadiazole]
> 2990	CN(C)c1nnc(Cn2ncc3ncc(-c4ccc(F)c(C(F)F)c4)cc32)o1 [Example 101, 5-[[6-[3-(Difluoromethyl)-4-fluoro-phenyl]pyrazolo[4,3-b]pyridin-1-yl]methyl]-N,N-dimethyl-1,3,4-oxadiazol-2-amine]
49	Fc1ccc(-c2cnc3cnn(Cc4nnc(C(F)(F)F)o4)c3c2)cc1C(F)F [Example 102, 2-[[6-[3-(Difluoromethyl)-4-fluoro-phenyl]pyrazolo[4,3-b]pyridin-1-yl]methyl]-5-(trifluoromethyl)-1,3,4-oxadiazole]
244	Cc1nnc(Cn2ncc3ncc(-c4ccc(F)c(C(C)(F)F)c4)cc32)o1 [Example 104, 2-[[6-[3-(1,1-Difluoroethyl)-4-fluoro-phenyl]pyrazolo[4,3-b]pyridin-1-yl]methyl]-5-methyl-1,3,4-oxadiazole]
115	Cc1nnc(Cn2ncc3ncc(-c4ccc(Cl)c(C(F)F)c4)cc32)o1 [Example 106, 2-[[6-[4-Chloro-3-(difluoromethyl)phenyl]pyrazolo[4,3-b]pyridin-1-yl]methyl]-5-methyl-1,3,4-oxadiazole]
347	Cc1nnc(Cn2nc(F)c3ncc(-c4ccc(Cl)c(C(F)F)c4)cc32)o1 [Example 107, 2-[[6-[4-Chloro-3-(difluoromethyl)phenyl]-3-fluoro-pyrazolo[4,3-b]pyridin-1-yl]methyl]-5-methyl-1,3,4-oxadiazole]
104	Cc1nnc(Cn2ncc3ncc(-c4ccc(F)c(OC(F)F)c4)cc32)o1 [Example 113, 2-[[6-[3-(Difluoromethoxy)-4-fluoro-phenyl]pyrazolo[4,3-b]pyridin-1-yl]methyl]-5-methyl-1,3,4-oxadiazole]
283	Cc1nnc(Cn2ncc3ncc(-c4ccc(Cl)c(OC(F)F)c4)cc32)o1 [Example 116, 2-[[6-[4-Chloro-3-(difluoromethoxy)phenyl]pyrazolo[4,3-b]pyridin-1-yl]methyl]-5-methyl-1,3,4-oxadiazole]
